Reference: patent US20020002269A1, “ARTEMIN, A NEUROTROPHIC FACTOR” (priority 1998, published 2002)

Test system: superior cervical ganglion (SCG) neurons
Assay: Survival of cultured superior cervical ganglion neurons after NGF withdrawal
Assay type: cell-based, rat
Conditions: 50 ng/ml, FIG. 7E
Protocol: Each GDNF ligand family member consisted of the human mature amino acid sequence and was produced by standard recombinant DNA methods. Recombinant GDNF, neurturin and persephin were obtained from Genentech while recombinant artemin was produced as described in Example 3.
The cultures were performed using standard methods described elsewhere (Kotzbauer et al., Neuron 12:763-773, 1994; Kotzbauer et al., Nature 384:467-470, 1996; Milbrandt et al., Neuron 20:245-253, 1998). […] Cultures were maintained for 3 days, after which they were fixed in 4% paraformaldehyde and stained with toluidine blue, and surviving neurons were counted. For nodose ganglion and dorsal root ganglion neuron cultures, dissociated neurons were plated directly into NGF (for dorsal root ganglia), or BDNF (for nodose ganglia, 100 ng/ml) or one of the GDNF ligands in serum-containing medium (AM50 with anti-NGF antibodies), and cells surviving after 3 days in culture were counted as above. Trigeminal ganglia were dissected, dissociated, and plated directly into medium containing NGF or the indicated GDNF ligands, and the number of surviving cells was assessed after 3 days in vitro. […]

artemin: recombinant mature human artemin (FIG. 3A, SEQ ID NO:3) with 8-histidine tag, produced in E. coli; GDNF family neurotrophic factor
survival of SCG neurons (3 days after 5 days in NGF, anti-NGF antibodies): supported the survival of SCG neurons | number of SCG neurons supported compared with GDNF or neurturin: fewer neurons were supported by artemin than by GDNF or neurturin
